Earlier results on two compounds are cited in patent US7705031B2 (priority 2003, dated 2010).

Data set [1] has as its target NaV1.3 (Homo sapiens, UniProt Q9NY46). The conditions noted are these: read-out: TTX IC50.
For data set [2], the system named is neuropathic pain. The conditions noted are these: human, in vivo.

NaV1.3, sequence (Q9NY46 whole entry, looked up): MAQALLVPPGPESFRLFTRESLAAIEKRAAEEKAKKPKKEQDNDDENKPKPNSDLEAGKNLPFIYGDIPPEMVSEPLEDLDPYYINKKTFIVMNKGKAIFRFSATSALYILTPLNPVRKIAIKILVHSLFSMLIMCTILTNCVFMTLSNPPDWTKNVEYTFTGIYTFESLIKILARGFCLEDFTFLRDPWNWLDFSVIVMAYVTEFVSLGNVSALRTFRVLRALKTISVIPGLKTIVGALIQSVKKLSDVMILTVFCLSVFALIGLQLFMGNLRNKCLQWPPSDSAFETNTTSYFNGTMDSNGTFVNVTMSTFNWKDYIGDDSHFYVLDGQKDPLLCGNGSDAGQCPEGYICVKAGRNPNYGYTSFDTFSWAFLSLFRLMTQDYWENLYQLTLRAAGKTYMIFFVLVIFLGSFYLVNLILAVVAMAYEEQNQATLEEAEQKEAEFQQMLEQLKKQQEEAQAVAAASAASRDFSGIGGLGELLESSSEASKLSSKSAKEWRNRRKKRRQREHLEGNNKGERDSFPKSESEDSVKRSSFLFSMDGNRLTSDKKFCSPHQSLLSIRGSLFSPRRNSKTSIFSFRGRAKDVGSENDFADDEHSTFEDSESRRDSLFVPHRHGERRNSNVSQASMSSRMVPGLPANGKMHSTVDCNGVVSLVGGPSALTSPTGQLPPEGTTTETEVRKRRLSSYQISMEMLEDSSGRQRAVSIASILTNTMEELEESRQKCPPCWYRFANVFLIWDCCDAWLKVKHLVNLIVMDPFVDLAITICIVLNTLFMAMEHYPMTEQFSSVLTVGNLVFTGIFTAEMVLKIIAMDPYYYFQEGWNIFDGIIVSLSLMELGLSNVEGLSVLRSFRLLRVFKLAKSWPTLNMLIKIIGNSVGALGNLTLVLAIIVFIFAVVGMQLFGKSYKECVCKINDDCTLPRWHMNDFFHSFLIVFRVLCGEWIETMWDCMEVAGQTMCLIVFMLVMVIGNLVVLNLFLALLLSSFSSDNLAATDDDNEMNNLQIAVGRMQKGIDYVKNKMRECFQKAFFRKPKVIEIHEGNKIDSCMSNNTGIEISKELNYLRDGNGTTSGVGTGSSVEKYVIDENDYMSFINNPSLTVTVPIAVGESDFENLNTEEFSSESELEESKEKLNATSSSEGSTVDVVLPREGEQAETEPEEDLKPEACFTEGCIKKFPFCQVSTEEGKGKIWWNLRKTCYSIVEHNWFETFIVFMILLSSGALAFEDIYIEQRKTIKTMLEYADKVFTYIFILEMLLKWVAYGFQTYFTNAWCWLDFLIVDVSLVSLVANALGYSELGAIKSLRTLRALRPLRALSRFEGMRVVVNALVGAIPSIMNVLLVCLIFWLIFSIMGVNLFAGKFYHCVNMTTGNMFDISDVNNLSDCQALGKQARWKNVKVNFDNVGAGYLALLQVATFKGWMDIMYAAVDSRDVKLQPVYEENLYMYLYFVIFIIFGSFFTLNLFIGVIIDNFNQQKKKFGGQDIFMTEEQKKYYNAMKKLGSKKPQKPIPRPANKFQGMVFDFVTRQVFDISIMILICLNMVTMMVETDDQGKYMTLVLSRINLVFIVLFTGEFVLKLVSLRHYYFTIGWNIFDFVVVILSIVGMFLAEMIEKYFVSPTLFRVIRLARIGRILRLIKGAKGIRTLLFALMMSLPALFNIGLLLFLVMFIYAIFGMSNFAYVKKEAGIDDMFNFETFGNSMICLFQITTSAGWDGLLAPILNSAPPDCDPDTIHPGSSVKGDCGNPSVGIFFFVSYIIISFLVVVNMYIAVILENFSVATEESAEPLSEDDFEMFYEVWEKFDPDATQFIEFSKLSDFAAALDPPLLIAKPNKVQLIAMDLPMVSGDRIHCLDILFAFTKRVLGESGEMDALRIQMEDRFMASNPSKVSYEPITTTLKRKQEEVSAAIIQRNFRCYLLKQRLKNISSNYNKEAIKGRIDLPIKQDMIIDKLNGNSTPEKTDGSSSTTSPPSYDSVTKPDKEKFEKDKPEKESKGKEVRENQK

As usually defined, the IC50 is the point on the concentration scale where inhibition reaches its midpoint. Consider `NC1=N[C@H](O)[C@H]2[C@H]3O[C@]4(O)O[C@@H]([C@@H](O)[C@@]2(N1)[C@@H]4O)[C@]3(O)CO` [TTX, tetrodotoxin], for which, in data set [1], the IC50 was 15 nM. For `NCC1(CC(=O)O)CCCCC1` [Gabapentin], the “share of patients in whom the drug works” value in data set [2] was 60%.
